For the test, the target named is T1, Type-2 angiotensin II receptor/Low affinity immunoglobulin epsilon Fc receptor (Homo sapiens, UniProt P06734+P50052).
T1 sequence (P50052 whole entry): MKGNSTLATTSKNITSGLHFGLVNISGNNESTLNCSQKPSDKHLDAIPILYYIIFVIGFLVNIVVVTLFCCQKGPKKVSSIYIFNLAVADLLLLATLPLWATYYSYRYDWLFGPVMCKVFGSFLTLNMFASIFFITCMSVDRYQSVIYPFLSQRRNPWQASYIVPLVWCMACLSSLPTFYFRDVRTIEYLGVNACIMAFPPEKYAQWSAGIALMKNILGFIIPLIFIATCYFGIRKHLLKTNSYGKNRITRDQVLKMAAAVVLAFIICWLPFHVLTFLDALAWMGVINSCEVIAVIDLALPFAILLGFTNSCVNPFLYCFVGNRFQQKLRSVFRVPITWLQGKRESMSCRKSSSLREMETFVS
T1 sequence (P06734 whole entry): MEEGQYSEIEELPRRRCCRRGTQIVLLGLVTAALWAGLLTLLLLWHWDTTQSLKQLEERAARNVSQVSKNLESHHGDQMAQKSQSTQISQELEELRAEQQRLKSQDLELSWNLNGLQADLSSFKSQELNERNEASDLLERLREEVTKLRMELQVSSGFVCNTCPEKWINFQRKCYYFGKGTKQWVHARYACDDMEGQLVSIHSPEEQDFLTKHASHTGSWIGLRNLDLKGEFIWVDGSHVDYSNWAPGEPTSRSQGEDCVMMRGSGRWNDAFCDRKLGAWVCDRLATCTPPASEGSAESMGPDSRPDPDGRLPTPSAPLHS
The test can be described thus: Radioligand Assay. As for the experimental part:
All synthesized ligands were evaluated in a radioligand assay by displacing 125I-[Sar1, Ile8]-Angiotensin II (Perkin Elmer, NEX248050UC) from human AT2R fused to Cb23 or human/rodent/cynomolgus/minipig/dog WT AT2R in HEK-293 cells membrane preparations, using C21 (Vicore Pharma) and Angiotensin II (endogenous ligand) as reference. The affinity was determined using an eight-point dose-response curve, each point performed in duplicates. The compounds were also evaluated in a counterscreen binding assay for displacement of 125I-[Sar1, Ile8]-Angiotensin II binding to human AT1R in HEK-293 cell membranes. For AT1R, the percent displacement was determined at 1 μM and […] or using an eight-point dose-response curve, each point performed in duplicates with Candesartan and Losartan used as reference.For the AT2R/AT1R binding assays, cell membranes, expressing AT2R_Cb23, AT2R or AT1R, were incubated with 0.05 nM 125I-[Sarl, Ile8]-Ang II. The ligand competition assay was performed in a total volume of 100 μL assay buffer (50 mM Tris, 5 mM MgCl2, 1 mM EDTA, 0.1% BSA, pH 7.4), at concentrations ranging from 1 μM to 10 μM. For each experiment, each ligand concentration was tested in duplicate. Non-specific binding (NSB) was determined by the inclusion of 10 μM unlabeled [Sarl]-Ang II (Sigma Aldrich). The reaction was initiated by the addition of radioligand, after which the plates were incubated at 25° C. for one hour. The reaction was terminated by rapid filtration using a vacuum harvester, applying six washes with 100 μL of ice-cold wash buffer (50 mM Tris.HCl, pH 7.4). The filter plates GF/C (Perkin Elmer) were pre-soaked in 0.5% PEI. The residual amount of radioactivity was determined via liquid scintillation counting. IC50 values, representing the concentration at which each ligand displaced 50% of 125I-[Sarl, Ile8]-Ang II, were calculated using GraphPad Prism 7.02 by applying a Non-linear regression equation (variable slope, four parameters) on the data.
On to `CCc1nc2ccc(NC(=O)c3ccccc3)cc2c(=O)n1CC1CCN(c2ccccc2-c2nn[nH]n2)CC1` [US20240368133, Compound A-245], for which the concentration for half-maximal inhibition (IC50) turned out to be 9.97 µM.

In the case of `CC(C)Cc1ccc(-c2nn[nH]n2)c(N2CCN(Cc3nc4ncccc4o3)CC2)c1` [US20240368133, Compound A-71], the IC50 turned out to be 18.5 µM.

Consider `c1ccc2sc(CN3CCN(c4cc(NCC5CC5)ccc4-c4nn[nH]n4)CC3)nc2c1` [US20240368133, Compound A-62], for which the IC50 was 1.68 µM.

For the compound `CCCCNC(=O)NS(=O)(=O)c1ccc(C(F)(F)F)cc1N1CCN(Cc2nc3ccccc3n2C)CC1` [US20240368133, Compound A-10], the IC50 amounted to 3.36 µM.

As a reminder, the IC50 is the point on the concentration scale where inhibition reaches its midpoint. Read a high IC50 as weaker potency.
